Holding throughout (type): biochemical
One test has as its target T1, JAK1 (Homo sapiens, UniProt P23458).
T1 construct: JAK1 (aa 850-1154) and TYK2 (aa 871-1187) are expressed with an N-terminally fused GST-tag; GST (N); purchased Carna Biosciences, Inc; host or cells: baculovirus expression system
Put plainly: JAK1 kinase assay (HTRF, inhibition of phosphorylation of a synthetic peptide). Conditions: catalytic domain aa 850-1154, GST-tag; 7 μM ATP (Km); read-out: JAK1 kinase inhibitory activity (EC50). In a few lines: (§1)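 Baculovirus-expressed human catalytic domains (GST-JAK1, GST-TYK2, His-JAK2, His-JAK3) phosphorylated 1 μM TK substrate-biotin at ATP Km (JAK1 7 μM, JAK2 4 μM, JAK3 2 μM, TYK2 13 μM) in pH 7.0 Hepes for 20-30 min at RT, 0.75% DMSO. EDTA stop, then overnight streptavidin-XL665/cryptate-antibody detection and HTRF read.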
For orientation: TR-FRET usually uses a lanthanide donor and a delayed reading to cut background.

For the next test, the target named is T2, JAK3 (Homo sapiens, UniProt P52333).
T2 construct: All four purified enzymes contain only the catalytic domain; His (N); purchased Carna Biosciences, Inc; host or cells: baculovirus expression system
Put plainly: JAK3 kinase assay (HTRF, inhibition of phosphorylation of a synthetic peptide). Particulars: catalytic domain, His-tag; 2 μM ATP (Km); read-out: JAK3 kinase inhibitory activity (EC50). The procedure, abridged:
as §1

The next test has as its target T3, JAK2 (Homo sapiens, UniProt O60674).
T3 construct: All four purified enzymes contain only the catalytic domain; His (N); purchased Carna Biosciences, Inc; host or cells: baculovirus expression system
Put plainly: JAK2 kinase assay (HTRF, inhibition of phosphorylation of a synthetic peptide). Particulars: catalytic domain, His-tag; 4 μM ATP (Km); read-out: JAK2 kinase inhibitory activity (EC50). In a few lines:
as §1

Molecules are shown by their SMILES.

Usually EC50 stands for the concentration needed to bring the measured effect to its halfway point.

T2 sequence (P52333 822-1111 limits assumed): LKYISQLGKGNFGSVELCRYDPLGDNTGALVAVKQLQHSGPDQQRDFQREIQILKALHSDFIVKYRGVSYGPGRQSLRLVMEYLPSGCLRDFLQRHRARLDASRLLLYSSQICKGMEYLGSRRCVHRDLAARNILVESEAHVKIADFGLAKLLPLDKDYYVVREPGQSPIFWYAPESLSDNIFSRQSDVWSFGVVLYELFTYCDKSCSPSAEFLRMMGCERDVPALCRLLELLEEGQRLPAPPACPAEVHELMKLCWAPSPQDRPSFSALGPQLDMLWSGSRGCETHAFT
T1 sequence (P23458 850-1154): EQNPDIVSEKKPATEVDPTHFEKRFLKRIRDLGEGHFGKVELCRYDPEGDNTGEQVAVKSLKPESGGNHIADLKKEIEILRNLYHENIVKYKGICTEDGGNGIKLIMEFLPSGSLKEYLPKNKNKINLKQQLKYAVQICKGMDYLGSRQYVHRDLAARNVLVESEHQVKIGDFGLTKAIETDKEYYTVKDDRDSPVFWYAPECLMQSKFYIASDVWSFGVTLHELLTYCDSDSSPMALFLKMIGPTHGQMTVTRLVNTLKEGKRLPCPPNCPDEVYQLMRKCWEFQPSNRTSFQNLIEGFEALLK
T3 sequence (O60674 849-1124 limits assumed): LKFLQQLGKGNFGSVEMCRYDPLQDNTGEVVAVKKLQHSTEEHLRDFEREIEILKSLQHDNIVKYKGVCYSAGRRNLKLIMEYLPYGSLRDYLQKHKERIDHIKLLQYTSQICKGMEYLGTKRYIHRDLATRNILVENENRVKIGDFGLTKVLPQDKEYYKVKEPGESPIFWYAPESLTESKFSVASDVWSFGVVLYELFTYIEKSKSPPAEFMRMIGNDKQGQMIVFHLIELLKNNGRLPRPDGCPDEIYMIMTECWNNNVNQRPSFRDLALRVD

For `CC(C)N(C)C(=O)N1CCN(c2ncnc3[nH]ccc23)CC2(CC2)C1` [Example 223, N-isopropyl-N-methyl-5-(7H-pyrrolo[2,3-d]pyrimidin-4-yl)-5,8-diazaspiro[2.6]nonane-8-carboxamide], the EC50 on JAK1, at JAK3 and at JAK2 was 0.1 to 1 µM each time.

For `CCN(CCC#N)C(=O)N1CCN(c2ncnc3[nH]ccc23)CC2(CC2)C1` [Example 224, N-(2-cyanoethyl)-N-ethyl-5-(7H-pyrrolo[2,3-d]pyrimidin-4-yl)-5,8-diazaspiro[2.6]nonane-8-carboxamide], the results for the half-maximal effective concentration (EC50) on JAK1, at JAK3 and at JAK2 were > 1 µM, 0.1 to 1 µM and 0.1 to 1 µM, respectively.

Consider `N#CCCN(CCC#N)C(=O)N1CCN(c2ncnc3[nH]ccc23)CC2(CC2)C1` [Example 225, N,N-bis(2-cyanoethyl)-5-(7H-pyrrolo[2,3-d]pyrimidin-4-yl)-5,8-diazaspiro[2.6]nonane-8-carboxamide], for which the concentration giving a half-maximal response (EC50) at JAK1 is > 1 µM; on JAK3, 0.1 to 1 µM; on JAK2 it was 0.1 to 1 µM.

On to `O=C(Cc1nnn[nH]1)N1CCCN(c2ncnc3[nH]ccc23)CC12CC2` [Example 226, 1-[5-(7H-pyrrolo[2,3-d]pyrimidin-4-yl)-5,9-diazaspiro[2.6]nonan-9-yl]-2-(1H-tetrazol-5-yl)ethanone], for which the EC50 was > 1 µM at JAK1, > 1 µM on JAK3 and 0.1 to 1 µM at JAK2.

Take `O=C(c1cscn1)N1CCCN(c2ncnc3[nH]ccc23)CC12CC2` [Example 227, [5-(7H-pyrrolo[2,3-d]pyrimidin-4-yl)-5,9-diazaspiro[2.6]nonan-9-yl]-thiazol-4-yl-methanone]: the EC50 at JAK1 is 0.1 to 1 µM; at JAK3, 0.1 to 1 µM; on JAK2, < 0.1 µM.

For `O=C(c1nc[nH]n1)N1CCCN(c2ncnc3[nH]ccc23)CC12CC2` [Example 228, [5-(7H-pyrrolo[2,3-d]pyrimidin-4-yl)-5,9-diazaspiro[2.6]nonan-9-yl]-(1H-1,2,4-triazol-3-yl)methanone], the EC50 at JAK1 was 0.1 to 1 µM; on JAK3, > 1 µM; on JAK2 it was 0.1 to 1 µM.

Regarding `Cc1sncc1C(=O)N1CCN(c2ncnc3[nH]ccc23)CC2(CC2)C1` [Example 229, (5-methylisothiazol-4-yl)-[5-(7H-pyrrolo[2,3-d]pyrimidin-4-yl)-5,8-diazaspiro[2.6]nonan-8-yl]methanone], the EC50 on JAK1 was 0.1 to 1 µM; on JAK3, > 1 µM; at JAK2, 0.1 to 1 µM.

Consider `Cc1sncc1C(=O)N1CCCN(c2ncnc3[nH]ccc23)CC12CC2` [Example 230, (5-methylisothiazol-4-yl)-[5-(7H-pyrrolo[2,3-d]pyrimidin-4-yl)-5,9-diazaspiro[2.6]nonan-9-yl]methanone], for which the half-maximal effective concentration (EC50) on JAK1 was 0.1 to 1 µM; at JAK3 it was 0.1 to 1 µM; on JAK2 it was < 0.1 µM.

For `O=C(c1n[nH]c(Cl)n1)N1CCN(c2ncnc3[nH]ccc23)CC2(CC2)C1` [Example 231, (5-chloro-1H-1,2,4-triazol-3-yl)-[5-(7H-pyrrolo[2,3-d]pyrimidin-4-yl)-5,8-diazaspiro[2.6]nonan-8-yl]methanone], the concentration for a half-maximal effect (EC50) at JAK1, on JAK3 and at JAK2 was 0.1 to 1 µM each time.

Take `O=C(c1n[nH]c(Cl)n1)N1CCCN(c2ncnc3[nH]ccc23)CC12CC2` [Example 232, (5-chloro-1H-1,2,4-triazol-3-yl)-[5-(7H-pyrrolo[2,3-d]pyrimidin-4-yl)-5,9-diazaspiro[2.6]nonan-9-yl]methanone]: the EC50 is 0.1 to 1 µM on JAK1, 0.1 to 1 µM at JAK3 and < 0.1 µM at JAK2.

In the case of `Cc1cc(C(=O)N2CCN(c3ncnc4[nH]ccc34)CC3(CC3)C2)sn1` [Example 233, (3-methylisothiazol-5-yl)-[5-(7H-pyrrolo[2,3-d]pyrimidin-4-yl)-5,8-diazaspiro[2.6]nonan-8-yl]methanone], the EC50 was 0.1 to 1 µM at JAK1, > 1 µM on JAK3 and 0.1 to 1 µM at JAK2.
